Test results taken from patent USRE43712E1, “Methods for assaying for antidepressant therapy markers” (The Board of Trustees of the Uniersity of Illinois, priority 2000, dated 2012).
Marks after values point to notes of the source that are not given here.

Assays:
[1] = tested on: Gsα; assay: Content of G protein (Gsα) in C6-2B glioma membranes after antidepressant treatment, quantitative immunoblot; format: cell-based
Experimental: (§1) C6-2B cells (between passages 20 and 40) were grown in 175-cm^2 flasks in Dulbecco's modified Eagle medium, 4.5 g of glucose/L, 10% bovine serum, in a 10% CO2 atmosphere, at 37° C. for 3 days after splitting. […] Male Sprague-Dawley rats weighing 150-200 g were fed ad libitum and maintained in a 12-h light/dark cycle. […] 36:803-838, 1989]. […] Rat cerebral cortex membranes were prepared according to the method of Rasenick et al. [Nature, 294:560-562; 1981].
(§2) Rat cortex membrane, C6-2B cell membranes, or Triton extracts of each membrane preparation were subjected to SDS-PAGE followed by electrotransfer to polyvinylidene difluoride (PVDF) membrane. The PVDF membrane was incubated with a phosphate-buffered saline/Tween 20 Buffer (140 mM NaCl, […]. 0.1% Tween 20, pH 7.4) and 3% bovine serum albumin. The membrane was then incubated with polyclonal rabbit antisera against the various G protein subunits [RM (Gsα) or 116 (Gi1, Gi2, Gi3α)] at a 1:25,000 (RM) or 1:5,000 (116) dilution (see below for source of antibodies). […] Immunoreactivity was detected with an enhanced chemiluminescence (ECL) western blot detection system (Amersham) in accord with the manufacturer's instructions. The developed autoradiographs were analyzed by densitometry.
Purified recombinant GsαL (long form of Gsα; 1-10 ng/lane) was subjected to SDS-PAGE and transferred to PVDF membranes. The blots were incubated with antibody against Gsα (RM) and processed by ECL. Films were analyzed on a Molecular Dynamics densitometer, and the volume of each band was quantified and used to make a standard curve.
Experiments were conducted to determine whether Gsα is quantitatively altered by antidepressant therapy. For quantification of Gsα in C6-2B membrane, a standard curve was created using purified recombinant […]. Pure Gsα (1-20 ng/well) was subjected to SDS-PAGE and transferred to a PVDF membrane, Gsα was immunodetected by antisera against the as subunit of G protein.
To estimate the effect of antidepressant treatment on the amount of Gsα in C6-2B membranes, equal amounts (10 μg) of C6-2B glioma membrane proteins in control and chronically (3 days) antidepressant-treated groups were subjected to SDS-PAGE. Gsα was immunodetected by antisera against the αs subunit of G protein.

[2] = tested on: Gsα; assay: Sequential detergent extraction (Triton X-100 / Triton X-114) of Gsα from C6-2B glioma membranes; format: cell-based; settings: C6-2B cells, 10 μM, 3 days; mean ± SEM of 4-5 experiments
Experimental: as §1
Membrane proteins were extracted sequentially from C6-2B or rat synaptic membranes as described [Yan et al., J. Neurochem., 66:1489-1495; 1996]. These membranes were stirred on ice in HEPES (15 mM, pH 7.4) containing 1% Triton X-100 for 60 min followed by centrifugation at 100,000 g for 60 min at 4° C. The supernatant was reserved (Triton X-100 extract), and the resulting pellet was resuspended in Tris (15 mM, pH 7.4) containing 1.4% Triton X-114 and 150 mM NaCl. The solution was stirred for 60 min at 4° C. and centrifuged for 30 min at 100,000 g in the cold. The supernatant was saved (Triton X-114 extract). These supernatants and remaining pellet (remainder) were subjected to sodium dodecyl sulfate (SDS)-polyacrylamide gel electophoresis (PAGE) using 10% gels. All of the extraction buffers contained 1 mM PMSF and 1 mM EGTA.
as §2
A membrane-enriched fraction was prepared (see Example 1), and membrane proteins were extracted sequentially with Triton X-100 (Tx 100) and Triton X-114 (Tx 114). Equal amounts of these extracts were subjected to SDS-PAGE and transferred to PVDF membrane. The long and short forms of Gsα (GsαL and GsαS) from different fractions were identified by immunodetection.
Experiments were conducted according to the method set forth in Example 1 to assess the effects of different antidepressants on the detergent extraction of Gsα from C6-2B glioma cells.
The ratios of the percentage of Gsα extracted by the two detergents in the treatment versus control groups were compared and are set forth in Table 2 as percentage of control (i.e., each Triton X-100 extract was compared with the untreated Triton X-100 extract; the same was done for Triton X-114 extracts as well as the remainder).

[3] = tested on: Gsα; assay: Detergent extraction of Gsα from rat synaptic membrane after chronic antidepressant treatment; format: in vivo; settings: short-term treatment (1-day treatment of cells or 1-week treatment of rats)
[4] = tested on: Goα; assay: Cellular localization of Goα in C6-2B cells, immunofluorescence confocal microscopy; format: cell-based; settings: 10 μM desipramine 3 days, approximately 500 cells, FIG. 9
Experimental: C6-2B cells (between passages 30 and 50) were plated onto coverslips and allowed to attach overnight in Dulbecco's modified Eagle's medium. 4.5 g/l glucose, 10% bovine serum, and 100 μg/ml penicillin and streptomycin at 37° C. in a humidified 10% CO2 atmosphere. […] Therefore, the latter treatment paradigm was used in these experiments because it was easier to maintain the cell cultures for 3 days. […] The culture media and drug were changed daily. […] After the treatment duration, the cells were incubated in drug-free media for 45 to 60 minutes before fixation.
After treatment, cells were washed once with phosphate-buffered saline (PBS, […] NaCl, 2.6 mM KCl, 5.4 mM NaαPO4 7H2O, pH 7.4) and fixed with ice-cold methanol for 10 minutes. Cells were then washed three times with PBS followed by 2 h of blocking in 5% normal goat serum/0.2% fish skin gelatin in PBS. Primary antibody was added for 1.5 h, Gsα/RM1 (PerkinElmer Life Sciences, Boston, Mass.) 1:50 and Goα (Santa Cruz Biotechnology, Santa Cruz, Calif.) 2 μg/ml, followed by three washes with PBS. Oregon Green-labeled secondary antibody (Molecular Probes, Eugene, Oreg.) was added at a concentration of 8 μg/ml for 1 h followed by three PBS washes. […] Approximately 2100 cells from control and desipramine-treated coverslips were counted by two investigators blind to the experimental conditions over the course of the five experiments. […]

[5] = C6-2B membranes, 10 μM drug for 3 days, mean ± SEM of 4-5 experiments

Structure (SMILES)	Quantity of G proteins in membrane, treated versus control ([1]; C6-2B cells, 10 μM, 3 days, p>0.05)	G protein amount, Total [1, 5]	G protein amount, αsL [1, 5]	G protein amount, αsS [1, 5]	GsαL in Triton X-114 extract, % of corresponding value in control group [2]	GsαS in Remainder, % of corresponding value in control group [2] [%]	GsαS in Triton X-100 extract, % of corresponding value in control group [2]	GsαS in Triton X-114 extract, % of corresponding value in control group [2]	Effect of short-term treatment on the parameters examined [3]	Change in the distribution of Goα [4]
CNCCC(Oc1ccc(C(F)(F)F)cc1)c1ccccc1 (stereo not shown) [Fluoxetine, fluoxetine]	no significant differences	12.49 ± 0.67 ng/10 ug of membrane protein	7.23 ± 0.56 ng/10 ug of membrane protein	5.65 ± 0.74 ng/10 ug of membrane protein	84.4 ± 2.9^b %	99.7 ± 3.1	215.9 ± 30.9^a %	92.2 ± 1.3^b %	without effect	
CNCCCN1c2ccccc2CCc2ccccc21 [Desipramine, desipramine]										little if any change
